Experimental findings from US20240408216A1, “PROTEIN INHIBITOR OR DEGRADING AGENT, PHARMACEUTICAL COMPOSITION CONTAINING SAME AND PHARMACEUTICAL USE” (JING MEDICINE TECHNOLOGY (SHANGHAI) LTD., priority 2021, published 2024) are described below.

Chain of BaF3 (EGFR L858R/C797S) (P00533 whole entry C797S/L858R): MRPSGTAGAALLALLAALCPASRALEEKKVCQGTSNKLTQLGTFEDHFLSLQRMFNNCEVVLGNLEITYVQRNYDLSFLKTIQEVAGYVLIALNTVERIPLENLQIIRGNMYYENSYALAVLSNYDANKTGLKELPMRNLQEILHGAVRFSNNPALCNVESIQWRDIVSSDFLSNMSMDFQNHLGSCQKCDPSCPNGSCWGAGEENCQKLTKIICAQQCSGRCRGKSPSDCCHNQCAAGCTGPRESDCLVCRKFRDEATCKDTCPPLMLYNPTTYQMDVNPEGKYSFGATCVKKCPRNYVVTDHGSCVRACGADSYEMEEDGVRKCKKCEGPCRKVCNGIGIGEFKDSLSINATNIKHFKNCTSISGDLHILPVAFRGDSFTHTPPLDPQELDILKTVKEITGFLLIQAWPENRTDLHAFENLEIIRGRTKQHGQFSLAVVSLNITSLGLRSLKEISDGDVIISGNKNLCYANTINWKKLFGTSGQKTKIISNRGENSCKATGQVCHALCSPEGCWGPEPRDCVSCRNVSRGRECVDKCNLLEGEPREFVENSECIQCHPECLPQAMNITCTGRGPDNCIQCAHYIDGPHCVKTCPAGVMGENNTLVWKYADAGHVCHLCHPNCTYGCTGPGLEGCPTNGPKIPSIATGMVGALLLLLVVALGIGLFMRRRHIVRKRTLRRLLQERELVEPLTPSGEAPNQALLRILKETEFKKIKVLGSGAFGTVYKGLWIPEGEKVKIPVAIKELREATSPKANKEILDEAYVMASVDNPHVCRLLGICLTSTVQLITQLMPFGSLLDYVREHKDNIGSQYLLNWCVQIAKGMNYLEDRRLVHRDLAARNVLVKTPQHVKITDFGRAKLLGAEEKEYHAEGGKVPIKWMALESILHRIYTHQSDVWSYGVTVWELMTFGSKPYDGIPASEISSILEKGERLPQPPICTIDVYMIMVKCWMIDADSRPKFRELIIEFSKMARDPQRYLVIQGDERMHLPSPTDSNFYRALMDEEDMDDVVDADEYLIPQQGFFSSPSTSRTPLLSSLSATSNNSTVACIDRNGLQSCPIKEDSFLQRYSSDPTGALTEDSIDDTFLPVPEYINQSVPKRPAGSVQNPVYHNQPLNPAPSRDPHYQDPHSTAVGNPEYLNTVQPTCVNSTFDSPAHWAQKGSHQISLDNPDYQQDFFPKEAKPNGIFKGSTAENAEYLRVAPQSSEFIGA
Chain of BaF3 (EGFR Del19) (P00533 with tags, fused parts or gaps DEL746-750): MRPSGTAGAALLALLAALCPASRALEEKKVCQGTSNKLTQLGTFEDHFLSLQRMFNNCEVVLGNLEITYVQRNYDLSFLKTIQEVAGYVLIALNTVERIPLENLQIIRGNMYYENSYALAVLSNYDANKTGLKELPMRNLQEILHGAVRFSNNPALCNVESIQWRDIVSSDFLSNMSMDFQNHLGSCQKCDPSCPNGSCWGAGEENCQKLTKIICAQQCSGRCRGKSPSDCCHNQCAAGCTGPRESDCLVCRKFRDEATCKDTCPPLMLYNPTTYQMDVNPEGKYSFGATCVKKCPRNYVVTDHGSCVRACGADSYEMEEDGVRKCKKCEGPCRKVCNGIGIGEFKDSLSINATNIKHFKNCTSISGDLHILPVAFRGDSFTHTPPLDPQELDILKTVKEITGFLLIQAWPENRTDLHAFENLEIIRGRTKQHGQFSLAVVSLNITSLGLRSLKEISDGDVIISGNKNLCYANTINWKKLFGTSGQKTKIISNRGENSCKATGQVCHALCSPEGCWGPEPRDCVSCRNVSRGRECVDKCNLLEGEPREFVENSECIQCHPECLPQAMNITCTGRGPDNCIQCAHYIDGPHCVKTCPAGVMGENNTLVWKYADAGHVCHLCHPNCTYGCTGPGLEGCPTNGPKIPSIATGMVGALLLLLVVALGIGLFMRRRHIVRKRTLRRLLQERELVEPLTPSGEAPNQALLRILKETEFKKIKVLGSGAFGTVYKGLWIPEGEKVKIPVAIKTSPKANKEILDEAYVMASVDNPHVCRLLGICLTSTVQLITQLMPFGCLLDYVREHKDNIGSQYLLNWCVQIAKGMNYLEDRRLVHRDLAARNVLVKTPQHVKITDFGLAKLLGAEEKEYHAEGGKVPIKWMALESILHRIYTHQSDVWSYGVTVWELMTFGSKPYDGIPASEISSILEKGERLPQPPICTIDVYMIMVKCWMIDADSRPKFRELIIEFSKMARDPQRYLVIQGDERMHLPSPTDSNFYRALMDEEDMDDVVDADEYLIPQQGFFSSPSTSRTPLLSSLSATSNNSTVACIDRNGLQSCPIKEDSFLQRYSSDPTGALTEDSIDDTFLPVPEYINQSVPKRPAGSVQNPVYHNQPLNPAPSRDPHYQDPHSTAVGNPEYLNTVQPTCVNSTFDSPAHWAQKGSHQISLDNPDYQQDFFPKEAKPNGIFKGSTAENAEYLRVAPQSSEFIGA
Chain of BaF3 (EGFR L858R) (P00533 whole entry L858R): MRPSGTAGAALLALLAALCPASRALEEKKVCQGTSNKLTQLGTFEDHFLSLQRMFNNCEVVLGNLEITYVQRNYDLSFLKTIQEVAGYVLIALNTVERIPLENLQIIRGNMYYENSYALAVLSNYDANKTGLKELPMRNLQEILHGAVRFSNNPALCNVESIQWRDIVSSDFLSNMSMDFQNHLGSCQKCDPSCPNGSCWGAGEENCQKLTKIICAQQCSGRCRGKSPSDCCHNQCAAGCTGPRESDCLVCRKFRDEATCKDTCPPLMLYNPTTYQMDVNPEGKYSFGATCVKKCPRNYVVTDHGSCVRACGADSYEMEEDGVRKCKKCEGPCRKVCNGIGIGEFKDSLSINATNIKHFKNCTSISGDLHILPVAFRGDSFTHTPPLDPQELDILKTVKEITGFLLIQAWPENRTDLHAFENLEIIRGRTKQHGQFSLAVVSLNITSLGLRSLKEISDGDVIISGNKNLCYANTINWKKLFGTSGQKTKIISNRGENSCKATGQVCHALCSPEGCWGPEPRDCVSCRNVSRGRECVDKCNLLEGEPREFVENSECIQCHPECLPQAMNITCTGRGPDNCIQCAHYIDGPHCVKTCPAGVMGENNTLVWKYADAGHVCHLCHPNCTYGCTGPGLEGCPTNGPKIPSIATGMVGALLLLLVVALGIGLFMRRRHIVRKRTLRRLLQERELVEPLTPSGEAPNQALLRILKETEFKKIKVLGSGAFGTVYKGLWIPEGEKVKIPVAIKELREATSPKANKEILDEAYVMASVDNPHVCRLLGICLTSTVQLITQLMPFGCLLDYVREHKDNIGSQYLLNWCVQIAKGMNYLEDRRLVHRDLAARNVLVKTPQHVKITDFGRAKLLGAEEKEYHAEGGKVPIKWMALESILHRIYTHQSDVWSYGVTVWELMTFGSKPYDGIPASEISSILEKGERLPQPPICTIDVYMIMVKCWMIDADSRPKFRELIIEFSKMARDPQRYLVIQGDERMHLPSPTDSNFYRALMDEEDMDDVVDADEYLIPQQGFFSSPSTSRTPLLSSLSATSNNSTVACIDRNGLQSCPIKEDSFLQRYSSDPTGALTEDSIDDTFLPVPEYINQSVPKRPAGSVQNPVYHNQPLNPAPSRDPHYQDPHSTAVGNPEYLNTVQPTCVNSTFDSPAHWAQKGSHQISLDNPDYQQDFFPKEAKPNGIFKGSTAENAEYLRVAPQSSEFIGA
T1 sequence (P00533 with tags, fused parts or gaps DEL746-750/C797S, form open): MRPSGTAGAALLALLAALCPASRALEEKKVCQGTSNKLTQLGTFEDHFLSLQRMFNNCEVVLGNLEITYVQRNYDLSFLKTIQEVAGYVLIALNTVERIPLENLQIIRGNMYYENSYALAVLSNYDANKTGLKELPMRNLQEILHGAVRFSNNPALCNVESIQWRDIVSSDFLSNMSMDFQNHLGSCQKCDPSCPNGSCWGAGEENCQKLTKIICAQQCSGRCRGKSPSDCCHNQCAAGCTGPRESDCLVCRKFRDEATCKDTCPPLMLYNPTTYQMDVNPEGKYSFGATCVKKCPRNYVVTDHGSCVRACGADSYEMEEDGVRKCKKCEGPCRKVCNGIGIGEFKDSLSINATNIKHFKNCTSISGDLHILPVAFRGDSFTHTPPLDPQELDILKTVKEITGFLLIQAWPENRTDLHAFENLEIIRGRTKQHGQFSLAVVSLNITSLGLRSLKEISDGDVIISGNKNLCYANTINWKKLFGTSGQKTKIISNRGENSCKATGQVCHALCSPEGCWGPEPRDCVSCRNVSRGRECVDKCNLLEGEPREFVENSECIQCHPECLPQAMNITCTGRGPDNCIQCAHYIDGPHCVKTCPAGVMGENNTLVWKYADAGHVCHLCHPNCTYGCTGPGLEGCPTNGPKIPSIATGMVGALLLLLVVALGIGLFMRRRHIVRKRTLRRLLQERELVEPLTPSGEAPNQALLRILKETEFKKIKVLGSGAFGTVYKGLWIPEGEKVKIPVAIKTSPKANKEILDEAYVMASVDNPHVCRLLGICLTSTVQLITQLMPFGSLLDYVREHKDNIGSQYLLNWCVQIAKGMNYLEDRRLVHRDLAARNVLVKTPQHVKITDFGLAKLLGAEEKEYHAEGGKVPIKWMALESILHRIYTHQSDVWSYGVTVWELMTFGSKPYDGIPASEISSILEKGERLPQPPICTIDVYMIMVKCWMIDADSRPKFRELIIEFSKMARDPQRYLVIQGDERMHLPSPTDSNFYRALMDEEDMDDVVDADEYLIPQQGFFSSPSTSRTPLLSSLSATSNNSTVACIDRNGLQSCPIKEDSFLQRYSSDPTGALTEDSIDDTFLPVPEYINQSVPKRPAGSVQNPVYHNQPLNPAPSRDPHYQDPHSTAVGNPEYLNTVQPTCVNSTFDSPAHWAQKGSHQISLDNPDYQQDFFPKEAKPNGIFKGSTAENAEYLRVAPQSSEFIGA

The subject of the first assay is DT. Description: Cell proliferation IC50 assay (Cell Titer GLO), DT cells. It counts as cell-based. Conditions: Mus musculus; Table 7; DT cells (BaF3 with EGFR mutant), 72 h. Here is the method: (§1) IC50 of compounds in the present invention was determined by Cell Titer GLO reagent from Promega. The procedures are as follows:
(§2) Tumor cells were cultured in specified medium in an incubator at 37° C. and 5% CO2. The cells were passaged periodically. Cells at the logarithmic growth phase were collected for plating at a density of 2000-4000 cells/well. The next day, the compounds of the present invention were serially diluted and added to the cells, with DMSO being the negative control and the culture media without cells being the blank control. The plate was incubated in the incubator for 72 h. The cell viability assay was performed by adding the detection reagents to the cell culture media according to Cell Titer GLO reagent instructions and detecting luminescent signals on an EnVision microplate reader (PerkinElmer).
(§3) Inhibition of cell growth by the compounds of the present invention was plotted by Prism Graphpad software for statistically calculating the IC50 of the compound of the present invention.
For the molecule `CCc1cc(Nc2ncc(Cl)c(Nc3ccccc3P(C)(C)=O)n2)c(OC)cc1N1CCC(N2CCN(CCCCCc3ccc4c(c3F)CN(C3CCC(=O)NC3=O)C4=O)CC2)CC1` (stereo not shown) [Example E20], the IC50 turned out to be 7 nM.

The molecule `CCc1cc(Nc2ncc(Cl)c(Nc3ccccc3P(C)(C)=O)n2)c(OC)cc1N1CCC2(CCN(CCCC#Cc3cccc4c3CN(C3CCC(=O)NC3=O)C4=O)CC2)CC1` (stereo not shown) [Example E15] registered an IC50 of 13.7 nM.

The subject of another assay is BaF3 (EGFR WT). Description: Cell proliferation IC50 assay (Cell Titer GLO), BaF3 WT cells. The format is cell-based. Conditions: Mus musculus, Ba/F3 EGFR, Table 5, 10 ng/ml EGF, 72 h. The procedure, abridged:
(§4)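 Growth inhibition is measured over 72 h of continuous compound treatment in cells seeded at 2000-4000 per well.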
`CCc1cc(Nc2ncc(Cl)c(Nc3ccccc3P(C)(C)=O)n2)c(OC)cc1N1CCC(N2CCN(CCCCCc3ccc4c(c3F)CN(C3CCC(=O)NC3=O)C4=O)CC2)CC1` (stereo not shown) [Example E20]: the IC50 was over 4000 nM.

Take `CCc1cc(Nc2ncc(Cl)c(Nc3ccccc3P(C)(C)=O)n2)c(OC)cc1N1CCC2(CCN(CCCC#Cc3cccc4c3CN(C3CCC(=O)NC3=O)C4=O)CC2)CC1` (stereo not shown) [Example E15]: the IC50 was over 4000 nM.

The subject of another assay is BaF3 (EGFR L858R/T790M/C797S). Description: Cell proliferation IC50 assay (Cell Titer GLO), BaF3 LTC cells. It counts as cell-based. Conditions: Mus musculus, Ba/F3 EGFR, Table 5, 72 h. The procedure, abridged:
as §4
In turn, `CCc1cc(Nc2ncc(Cl)c(Nc3ccccc3P(C)(C)=O)n2)c(OC)cc1N1CCC(N2CCN(CCCCCc3ccc4c(c3F)CN(C3CCC(=O)NC3=O)C4=O)CC2)CC1` (stereo not shown) [Example E20] registered an IC50 of 54.3 nM.

For the molecule `CCc1cc(Nc2ncc(Cl)c(Nc3ccccc3P(C)(C)=O)n2)c(OC)cc1N1CCC2(CCN(CCCC#Cc3cccc4c3CN(C3CCC(=O)NC3=O)C4=O)CC2)CC1` (stereo not shown) [Example E15], the IC50 was determined as 120 nM.

The next assay has as its system BaF3 (EGFR Del19/T790M/C797S). Description: Cell proliferation IC50 assay (Cell Titer GLO), BaF3 DTC cells. It counts as cell-based. Conditions: Mus musculus, Ba/F3 EGFR-Del19/T790M/C797S, Table 5, 72 h. The procedure, abridged: as §4
Consider `CCc1cc(Nc2ncc(Cl)c(Nc3ccccc3P(C)(C)=O)n2)c(OC)cc1N1CCC(N2CCN(CCCCCc3ccc4c(c3F)CN(C3CCC(=O)NC3=O)C4=O)CC2)CC1` (stereo not shown) [Example E20], for which the IC50 is 5.6 nM.

The molecule `CCc1cc(Nc2ncc(Cl)c(Nc3ccccc3P(C)(C)=O)n2)c(OC)cc1N1CCC2(CCN(CCCC#Cc3cccc4c3CN(C3CCC(=O)NC3=O)C4=O)CC2)CC1` (stereo not shown) [Example E15] displayed an IC50 of 10.6 nM.

A further assay concerns A431. Kind of assay: Cell proliferation IC50 assay (Cell Titer GLO), A431 cells. The following applies: Homo sapiens, A-431; Table 5; A431, 72 h; read-out: A431 IC50. It counts as cell-based. The procedure, abridged: as §4
As for `CCc1cc(Nc2ncc(Cl)c(Nc3ccccc3P(C)(C)=O)n2)c(OC)cc1N1CCC(N2CCN(CCCCCc3ccc4c(c3F)CN(C3CCC(=O)NC3=O)C4=O)CC2)CC1` (stereo not shown) [Example E20], the IC50 came out at 1270 nM.

For `CCc1cc(Nc2ncc(Cl)c(Nc3ccccc3P(C)(C)=O)n2)c(OC)cc1N1CCC2(CCN(CCCC#Cc3cccc4c3CN(C3CCC(=O)NC3=O)C4=O)CC2)CC1` (stereo not shown) [Example E15], the IC50 was over 4000 nM.

Another assay addresses T1, BaF3 (EGFR Del19/C797S) (Homo sapiens, UniProt P00533, C797S, cells depend on it, form not given).
T1 construct: BaF3 (EGFR Del19/C797S)|DC|RPMI1640 + 10% FBS
Kind of assay: Cell proliferation IC50 assay (Cell Titer GLO), BaF3 DC cells. Conditions: Table 7, 72 h. It counts as cell-based, mouse. An outline of the steps:
as §4
The molecule `CCc1cc(Nc2ncc(Cl)c(Nc3ccccc3P(C)(C)=O)n2)c(OC)cc1N1CCC(N2CCN(CCCCCc3ccc4c(c3F)CN(C3CCC(=O)NC3=O)C4=O)CC2)CC1` (stereo not shown) [Example E20] came in with an IC50 of 2.7 nM.

Turning to `CCc1cc(Nc2ncc(Cl)c(Nc3ccccc3P(C)(C)=O)n2)c(OC)cc1N1CCC2(CCN(CCCC#Cc3cccc4c3CN(C3CCC(=O)NC3=O)C4=O)CC2)CC1` (stereo not shown) [Example E15], the IC50 was found to be 9.1 nM.

The next assay deals with BaF3 (EGFR L858R) (Homo sapiens, UniProt P00533, L858R, cells depend on it). Kind of assay: Cell proliferation IC50 assay (Cell Titer GLO), BaF3 L cells. The format is cell-based, mouse. Conditions: Table 7, 72 h. Here is the method:
as §1, §2, §3
In the case of `CCc1cc(Nc2ncc(Cl)c(Nc3ccccc3P(C)(C)=O)n2)c(OC)cc1N1CCC(N2CCN(CCCCCc3ccc4c(c3F)CN(C3CCC(=O)NC3=O)C4=O)CC2)CC1` (stereo not shown) [Example E20], the GI50 was determined as 5.2 nM. This counts as single-digit nanomolar.

`CCc1cc(Nc2ncc(Cl)c(Nc3ccccc3P(C)(C)=O)n2)c(OC)cc1N1CCC2(CCN(CCCC#Cc3cccc4c3CN(C3CCC(=O)NC3=O)C4=O)CC2)CC1` (stereo not shown) [Example E15] showed a GI50 of 20.1 nM.

Another assay addresses BaF3 (EGFR L858R/C797S) (Homo sapiens, UniProt P00533, C797S/L858R, cells depend on it). Kind of assay: Cell proliferation IC50 assay (Cell Titer GLO), BaF3 LC cells. The following applies: Table 7, 72 h. It counts as cell-based, mouse. Here is the method:
as §1, §2, §3
Turning to `CCc1cc(Nc2ncc(Cl)c(Nc3ccccc3P(C)(C)=O)n2)c(OC)cc1N1CCC(N2CCN(CCCCCc3ccc4c(c3F)CN(C3CCC(=O)NC3=O)C4=O)CC2)CC1` (stereo not shown) [Example E20], growth was halved (GI50) at 19.4 nM. In other words, the double-digit nanomolar range.

Take `CCc1cc(Nc2ncc(Cl)c(Nc3ccccc3P(C)(C)=O)n2)c(OC)cc1N1CCC2(CCN(CCCC#Cc3cccc4c3CN(C3CCC(=O)NC3=O)C4=O)CC2)CC1` (stereo not shown) [Example E15]: halving of growth (GI50) required 54.4 nM.

The target in the next assay is BaF3 (EGFR Del19) (Homo sapiens, UniProt P00533, cells depend on it, form not given). Description: Cell proliferation IC50 assay (Cell Titer GLO), BaF3 D cells. Conditions: Table 7, 72 h. It counts as cell-based, mouse. The method, then:
as §1, §2, §3
Turning to `CCc1cc(Nc2ncc(Cl)c(Nc3ccccc3P(C)(C)=O)n2)c(OC)cc1N1CCC(N2CCN(CCCCCc3ccc4c(c3F)CN(C3CCC(=O)NC3=O)C4=O)CC2)CC1` (stereo not shown) [Example E20], the GI50 is 1.7 nM. That is a single-digit nanomolar value.

As to `CCc1cc(Nc2ncc(Cl)c(Nc3ccccc3P(C)(C)=O)n2)c(OC)cc1N1CCC2(CCN(CCCC#Cc3cccc4c3CN(C3CCC(=O)NC3=O)C4=O)CC2)CC1` (stereo not shown) [Example E15], growth was halved (GI50) at 5.3 nM. This GI50 is about 3.1-fold higher than that of the molecule before.

For a further assay, the system named is BaF3 patent. Kind of assay: Cell proliferation IC50 assay (Cell Titer GLO), BaF3 parental cells. The format is cell-based. The following applies: Mus musculus, Table 5, 10 ng/ml mIL3, 72 h. Here is the method:
as §1, §2, §3
For `CCc1cc(Nc2ncc(Cl)c(Nc3ccccc3P(C)(C)=O)n2)c(OC)cc1N1CCC(N2CCN(CCCCCc3ccc4c(c3F)CN(C3CCC(=O)NC3=O)C4=O)CC2)CC1` (stereo not shown) [Example E20], the IC50 was over 4000 nM.

For the molecule `CCc1cc(Nc2ncc(Cl)c(Nc3ccccc3P(C)(C)=O)n2)c(OC)cc1N1CCC2(CCN(CCCC#Cc3cccc4c3CN(C3CCC(=O)NC3=O)C4=O)CC2)CC1` (stereo not shown) [Example E15], the IC50 was over 4000 nM.

Another assay relates to LT. Description: Cell proliferation IC50 assay (Cell Titer GLO), LT cells. It counts as cell-based. Conditions: Mus musculus; Table 7; LT cells (BaF3 with EGFR mutant), 72 h. The method, then:
as §1, §2, §3
`CCc1cc(Nc2ncc(Cl)c(Nc3ccccc3P(C)(C)=O)n2)c(OC)cc1N1CCC(N2CCN(CCCCCc3ccc4c(c3F)CN(C3CCC(=O)NC3=O)C4=O)CC2)CC1` (stereo not shown) [Example E20]: the IC50 came out at 10 nM.

Regarding `CCc1cc(Nc2ncc(Cl)c(Nc3ccccc3P(C)(C)=O)n2)c(OC)cc1N1CCC2(CCN(CCCC#Cc3cccc4c3CN(C3CCC(=O)NC3=O)C4=O)CC2)CC1` (stereo not shown) [Example E15], the IC50 amounted to 20.7 nM.
